Experimental data as given in patent US10807968B2, “Substituted 2-(het)arylimidazolylcarboxyamides as pesticides” (Bayer CropScience Aktiengesellschaft, priority 2016, dated 2020).
Read-outs that look alike come from different tables or passages of the source.

How the values were obtained:
[1] = log P determination by HPLC on reversed-phase (C18) columns, OECD Guideline 117; assay type: physicochemical
Method: The log P values were determined in accordance with OECD Guideline 117 (EC Directive 92/69/EEC) by HPLC (high-performance liquid chromatography) using reversed-phase (RP) columns (C18), by the following methods:
[a] The LC-MS determination in the acidic range was carried out at pH 2.7 with 0.1% aqueous formic acid and acetonitrile (contains 0.1% formic acid) as mobile phases; linear gradient from 10% acetonitrile to 95% acetonitrile.
[b] LC-MS determination in the neutral range was carried out at pH 7.8 with 0.001 molar aqueous ammonium hydrogencarbonate solution and acetonitrile as mobile phases; linear gradient from 10% acetonitrile to 95% acetonitrile.

Tetranychus urticae = Tetranychus urticae - spray test, OP-resistant; assay type: in vivo; details: 500 g/ha, after 6 days, bean leaf discs
Method: Tetranychus Urticae—Spray Test, OP-Resistant
(§1) Solvent: 78.0 parts by weight of acetone • • 1.5 parts by weight of dimethylformamide
(§2) Emulsifier: alkylaryl polyglycol ether
(§3) To produce a suitable preparation of active compound, 1 part by weight of active compound is dissolved using the specified parts by weight of solvent and made up with water containing an emulsifier concentration of 1000 ppm until the desired concentration is attained. To produce further test concentrations, the formulation is diluted with emulsifier-containing water.
Discs of bean leaves (Phaseolus vulgaris) infested with all stages of the greenhouse red spider mite (Tetranychus urticae) are sprayed with an active compound formulation of the desired concentration.
After 6 days, the efficacy in % is determined. 100% means that all the spider mites have been killed; 0% means that no spider mites have been killed.

Myzus persicae [2] = assay: Myzus persicae - spray test (Chinese cabbage leaf discs); assay type: in vivo; details: 500 g/ha, after 6 days; for pest or weed control at 500 g/ha: Myzus persicae, foliar, 144 h, read-out: efficacy in % (aphids killed)
Method: Myzus persicae—Spray Test
Solvent: 78 parts by weight of acetone • • 1.5 parts by weight of dimethylformamide
as §2
as §3, with “an emulsi fier” for “an emulsifier”
Discs of Chinese cabbage leaves (Brassica pekinensis) infested by all stages of the green peach aphid (Myzus persicae) are sprayed with an active compound formulation of the desired concentration.
After 6 days, the efficacy in % is determined. 100% means that all the aphids have been killed; 0% means that no aphids have been killed.

Myzus persicae [3] = assay: Myzus persicae - oral test; assay type: in vivo; details: after 5 days; for efficacy in % (aphids killed): 20 ppm; for pest or weed control at 20 ppm: Myzus persicae, 120 h, read-out: efficacy in % (aphids killed)
Method: (§4) Solvent: 100 parts by weight of acetone
Subsequently, the plates are sealed with parafilm, which a mixed population of green peach aphids (Myzus persicae) within a second microtitre plate is able to puncture and imbibe the solution through it.
After 5 days, the efficacy in % is determined. 100% means that all the aphids have been killed; 0% means that no aphids have been killed.

Meloidogyne incognita = Meloidogyne incognita test; assay type: in vivo; details: 20 ppm, after 14 days, lettuce in sand
Method: Meloidogyne Incognita Test
Solvent: 125.0 parts by weight of acetone
To produce a suitable active compound formulation, 1 part by weight of active compound is mixed with the stated amount of solvent and the concentrate is diluted with water to the desired concentration.
Vessels are filled with sand, active compound solution, an egg/larvae suspension of the southern root-knot nematode (Meloidogyne incognita) and lettuce seeds. The lettuce seeds germinate and the plants develop. The galls develop on the roots.
After 14 days, the nematicidal efficacy in % is determined by the formation of galls. 100% means that no galls were found; 0% means that the number of galls on the treated plants corresponds to the untreated control.

Myzus persicae [4] = assay: Myzus persicae - spray test (MYZUPE), comparison with prior art; assay type: in vivo; details: read-out: % efficacy dat
Method: Myzus persicae—Spray Test (MYZUPE)
as §1, §2, §3
Discs of Chinese cabbage leaves (Brassica pekinensis) infested by all stages of the green peach aphid (Myzus persicae) are sprayed with an active compound preparation of the desired concentration.
After the desired period of time, the efficacy in % is determined. 100% means that all the aphids have been killed; 0% means that no aphids have been killed.

Myzus persicae [5] = assay: Myzus persicae - oral test (MYZUPE O), comparison with prior art; assay type: in vivo; details: 120 h, read-out: % efficacy dat
Method: Myzus persicae—Oral Test (MYZUPE O)
as §4
To produce a suitable preparation of active compound, 1 part by weight of active compound is dissolved using the specified parts by weight of solvent and made up with water until the desired concentration is attained.
50 μl of the active compound preparation are transferred into microtitre plates and made up to a final volume of 200 μl with 150 μl of IPL41 insect medium (33%+15% sugar). Subsequently, the plates are sealed with parafilm, which a mixed population of green peach aphids (Myzus persicae) within a second microtitre plate is able to puncture and imbibe the solution through it.
After 5 or 6 days (dat), the efficacy in % is determined. 100% means that all the aphids have been killed; 0% means that no aphids have been killed.

Myzus persicae [6] = assay: Myzus persicae - spray test (bell pepper plants); assay type: in vivo; details: 20 ppm, after 6 days
Method: Myzus persicae—Spray Test Solvent: 14 parts by weight of dimethylformamide Emulsifier: alkylaryl polyglycol ether […] To produce further test concentrations, the formulation is diluted with emulsifier-containing water. If the addition of ammonium salts or/and penetrants is required, these are each added in a concentration of 1000 ppm to the formulation solution. Bell pepper plants (Capsicum annuum) severely infested with the green peach aphid (Myzus persicae) are treated by spraying with the active compound formulation in the desired concentration.

[7] = HPLC, acidic range pH 2.7, 0.1% aqueous formic acid/acetonitrile
[8] = HPLC, neutral range pH 7.8, 0.001 molar aqueous ammonium hydrogencarbonate/acetonitrile
[9] = reversed-phase (C18) HPLC column, pH 2.7, HPLC, acidic range pH 2.7, 0.1% aqueous formic acid/acetonitrile, read-out: logp-acidic
[10] = reversed-phase (C18) HPLC column, pH 7.8, HPLC, neutral range pH 7.8, 0.001 molar aqueous ammonium hydrogencarbonate/acetonitrile, read-out: logp-neutral
[11] = 120 h, MYZUPE, 100 g ai/ha, 5 dat
[12] = 144 h, MYZUPE, 100 g ai/ha, 6 dat

logp-acidic ([1]; pH 2.7)	logp-neutral ([1]; pH 7.8)	Structure (SMILES)	efficacy in % (aphids killed) (Myzus persicae [3]) [%]	chromatographic logP [1, 9]	chromatographic logP [1, 10]	pest or weed control at 500 g/ha (Myzus persicae [2]) [%]	pest or weed control at 20 ppm (Myzus persicae [3]) [%]	Emax at 4 ppm (Myzus persicae [5]; MYZUPE O, 4 ppm, 5 dat) [%]	kill in % (aphids killed) (Myzus persicae [6]) [%]	further results
1.55	1.87	CC(C)Oc1ccc(-c2ncc(C(=O)N(C)c3cccnc3)n2C)cc1C#N [Example 105]	100							efficacy in % (spider mites killed) (Tetranychus urticae): 100%; efficacy in % (aphids killed) (Myzus persicae [2]): 90%
		CN(C(=O)c1cnc(-c2cccc3c2OCO3)n1C)c1cccnc1 [Example 83]	100							logp-acidic [1, 7]: 0.9; logp-neutral [1, 8]: 1.44; nematicidal efficacy in % (formation of galls) (Meloidogyne incognita): 100%; efficacy in % (aphids killed) (Myzus persicae [2]): 90%
1.64	1.99	CN(C(=O)c1cnc(-c2cccc(C(F)(F)F)c2)n1C)c1cccnc1 [Example 52]	100							efficacy in % (spider mites killed) (Tetranychus urticae): 90%; efficacy in % (aphids killed) (Myzus persicae [2]): 100%
		CN(C(=O)c1cnc(-c2ccc(C#N)c(C(F)(F)F)c2)n1C)c1cccnc1 [Example 16]								Emax at 100 g/ha (Myzus persicae [4]; 144 h): 90%; Emax at 4 ppm (Myzus persicae [5]): 100%
		COc1ncc(Cl)cc1-c1ncc(C(=O)N(C)c2cccnc2)n1C [Example 87]		1.35	1.64	100	100	100		Emax at 100 g/ha (Myzus persicae [4]; [11]): 90%
0.73	1.35	CN(C(=O)c1cnc(-c2ccc(F)c(COC(=O)C3CC3)c2)n1C)c1cccnc1 [Example 46]	100						95	
1.42	1.51	CCOC(=O)c1cc(-c2ncc(C(=O)N(C)c3cccnc3)n2C)on1 [Example 72]	100							efficacy in % (spider mites killed) (Tetranychus urticae): 90%
		CN(C(=O)c1cnc(-c2ncccn2)n1C)c1cccnc1 [Example 4]		0.35	0.73	90	100	100		Emax at 100 g/ha (Myzus persicae [4]; [12]): 90%
1.28	1.62	CN(C(=O)c1cnc(-c2cccc([S+]([O-])C(F)(F)F)c2)n1C)c1cccnc1 (stereo not shown) [Example 49]	100						100	
		CN(C(=O)c1cnc(-c2ccc(F)c(C(F)(F)F)c2)n1C)c1cccnc1 [Example 50]		1.72	2.08		100		100	
		Cc1nc(C(=O)Nc2cccnc2)c[nH]1 [Comparative Ex. 1, reference compound]						0		Emax at 100 g/ha (Myzus persicae [4]; MYZUPE, 100 g ai/ha, 5/6 dat): 0%
		COc1cccc(-c2ncc(C(=O)N(C)c3cccnc3)n2C)n1 [Example 78]		1.23	1.6	90	100	100		Emax at 100 g/ha (Myzus persicae [4]; [11]): 70%
		COc1ncc(-c2ncc(C(=O)N(C)c3cccnc3)n2C)cc1C#N [Example 68]		1.2	1.44	100	100	100		Emax at 100 g/ha (Myzus persicae [4]; [11]): 100%
		O=C(Nc1cccnc1)c1c[nH]cn1 [Comparative Ex. 2, reference compound]						0		Emax at 100 g/ha (Myzus persicae [4]; [12]): 0%
		COc1cc(-c2ncc(C(=O)N(C)c3cccnc3)n2C)cc(C(F)(F)F)n1 [Example 99]		2.05	2.23	90	100	100		Emax at 100 g/ha (Myzus persicae [4]; [11]): 70%
		CN(C(=O)c1cnc(-c2cncc(C#N)c2)n1C)c1cccnc1 [Example 64]		0.75	0.98	90	100			Emax at 100 g/ha (Myzus persicae [4]; 120 h): 90%; Emax at 4 ppm (Myzus persicae [5]): 100%
		CN(C(=O)c1cnc(-c2ccc(Cl)cc2Cl)n1C)c1cccnc1 [Example 12]	100						100	logp-acidic [1, 7]: 1.66
		CN(C(=O)c1cnc(-c2cc3ccccc3o2)n1C)c1cccnc1 [Example 70]					100		95	chromatographic logP ([1]; HPLC, acidic range pH 2.7, 0.1% aqueous formic acid/acetonitrile, read-out: logp-acidic): 1.63; chromatographic logP ([1]; HPLC, neutral range pH 7.8, 0.001 molar aqueous ammonium hydrogencarbonate/acetonitrile, read-out: logp-neutral): 1.87
		COc1ccc(-c2ncc(C(=O)N(C)c3cccnc3)n2C)c(OC)n1 [Example 81]		0.89	1.69	100	100	70		Emax at 100 g/ha (Myzus persicae [4]; [11]): 70%
2.09	2.40	CN(C(=O)c1cnc(-c2cccc(C(F)(F)C(F)(F)F)c2)n1C)c1cccnc1 [Example 57]	100							efficacy in % (spider mites killed) (Tetranychus urticae): 90%; efficacy in % (aphids killed) (Myzus persicae [2]): 100%
		CCN(C(=O)c1cnc(-c2ccccn2)n1C)c1cccnc1 [Example 77]	100						100	logp-acidic [1, 7]: 0.97; logp-neutral [1, 8]: 1.39; efficacy in % (aphids killed) (Myzus persicae [2]): 100%
2.17	2.43	CN(C(=O)c1cnc(-c2cc(Cl)cc(C(F)(F)F)c2)n1C)c1cccnc1 [Example 51]	100						100	
		CN(C)c1ncc(-c2ncc(C(=O)N(C)c3cccnc3)n2C)cc1C#N [Example 65]		1.1	1.5	100	100	100		Emax at 100 g/ha (Myzus persicae [4]; [11]): 90%
